Among the data in patent EP1377579B1 (Aventis Pharmaceuticals Inc., priority 2000, dated 2002) are IC50 values, retold here.

Counter-ions that a name gives are not always drawn.

One test deals with MDA-MB-435. Put plainly: In vitro proliferation assay (MTT), MDA-MB-435. The format is cell-based, human. The conditions noted are these: Homo sapiens, MDA-MB-435, MTT assay; value (SD, n) where given; read-out: MB-435 Breast (IC50 µM). The method, then:
(§1) The proliferation of tumor cells can be measured using a tetrazolium salt-based assay known as the MTT (3-[4,5-Dimethylthiazol-2-yl]-2,5-diphenyltetrazolium bromide) assay. […] For the assay, the cell lines are plated onto 96 well plates at 1000 to 2500 cells/well (depending on the properties of the individual cell lines), left to attach and recover overnight. […] After 3 days, the cells are incubated with MTT dye (3-[4,5-Dimethylthiazol-2-yl]-2,5-diphenyltetrazolium bromide, Sigma # M5655, 10 mg/ml in Hank's Buffered Saline) to estimate the amount of live cells remaining vs. concentration for the test compounds. […] The MTT and culture medium is then removed from the cultures and 200 µl of DMSO is added to solubilize the dye from the cell layer. The absorbance at 570 nm is determined for each culture using a Spectramax plate reader (Molecular Devices).
(§2) IC50s were determined from the raw data from either the MTT or SRB assays.
(§3) All of the cell lines were obtained from American Type Tissue Collection, with the ATCC accession number in parentheticals. MCF-7 and MDA-MB-231 cells were grown in improved minimum essential medium (Biofluids) without phenol red, supplemented with 5 % fetal bovine serum, 0.01 mg/ml gentamicin and 3 mM L-glutamine.
(Tetrazolium assays rely on reduction of a dye to a coloured formazan, in cell work by metabolically active cells.)

In the next test the test system is PC-3. In words: In vitro proliferation assay (MTT), PC-3. It counts as cell-based, human. To be noted: Homo sapiens, PC-3, MTT assay; value (SD, n) where given; read-out: PC-3 Prostate (IC50 µM). The method, then: as §1, §2, §3
The next test addresses cdk2/cyclin E (Homo sapiens, UniProt P24941). Put plainly: Cyclin-dependent kinase assay, cdk2/cyclin E. To be noted: CDK2 IC50, nM, GST-pRb substrate, 10 µM ATP.

Method for cdk2/cyclin E: The insect cell (Sf9) expression is optimized for each of the CDK/cyclin pairs according to the manufacturer's protocols (Life Technologies).
The viruses are added to the cells and the culture is incubated at 27°C for the desired time. The cells are harvested by centrifugation at 3000 rpm for 10 minutes. The cells are snap frozen on dry ice and stored at - 80°C.
Cell extracts are made following a standard procedure. The cell pellet is resuspended in lysis buffer (50 mM HEPES, pH 8.0, 10 mM MgCl2, 1 mM DTT, 2.5 mM EGTA, 1 mM EDTA, 10 mM β-glycerophosphate, 1 mM sodium vanadate, 1 mM sodium fluoride, 1 x Protease inhibitor cocktail). The cells are lysed using the microfluidizer (Microfluidics) for 20 minutes. Cell debris is removed by centrifugation at 100,000 x g. The cell extracts are aliquoted in 1 ml aliquots, frozen on dry ice, and stored at -80°C.
The kinase reactions are performed following a standard procedure. The enzyme and inhibitor are diluted in kinase buffer (50 mM HEPES, pH 8.0, 10 mM MgCl2, 2.5 mM EGTA, 10 mM β-glycerophosphate, 1 mM sodium vanadate, 1 mM sodium fluoride, and 1 mM DTT) and pre-incubated for 30 minutes. The cdk2 and cdk4 enzyme activities are assayed using 500 ng of the GST-pRb substrate (see description below) in the presence of 10 µM cold ATP and 1 µCi of [γ-^33P] ATP for 30 minutes at room temperature. […] The reactions are terminated by the addition of 50 µL of 10 mM cold ATP to stop the reactions. The reactions are transferred to a pre-soaked 96-well multi-screen plate containing 30 µL of 100% TCA per well. After incubation for one hour at room temperature, the plates are washed twice with 200 µl of 20% TCA, followed by 200 µl of 10% TCA and finally with 200 µl of 5% TCA. After drying the plates at room temperature, the filter plates are placed in adapter plates (Packard) and 40 µl of Microscint-O® (Packard) is added to each well.

The IC50 is the midpoint of a concentration-inhibition curve. For `CC(C)(C)COC(=O)N1CCC(Nc2nc(N[C@H]3CC[C@H](N)CC3)nc3c2ncn3C2CCCC2)CC1` [compound 103, trans-4-[2-(4-Amino-cyclohexylamino)-9-cyclopentyl-9H-purin-6-ylamino]-piperidine-1-carboxylic acid 2,2-dimethyl-propyl ester dihydrochloride], the IC50 was found to be 0.51 µM in the test with MDA-MB-435 and 0.44 µM with PC-3.
As to `CCCCCCOC(=O)N1CCC(Nc2nc(N[C@H]3CC[C@H](N)CC3)nc3c2ncn3C2CCCC2)CC1` [compound 98, trans-4-[2-(4-Amino-cyclohexylamino)-9-cyclopentyl-9H-purin-6-ylamino]-piperidine-1-carboxylic acid hexyl ester dihydrochloride], the values for the IC50 in the test on MDA-MB-435 and in the test with PC-3 were 0.66 µM and 0.82 µM, respectively.
As for `CCCCc1ccc(C(=O)N2CCC(Nc3nc(N[C@H]4CC[C@H](N)CC4)nc4c3ncn4C3CCCC3)CC2)cc1` [compound 21, trans-1-{4-[2-(4-Amino-cyclohexylamino)-9-cyclopentyl-9H-puxin-6-ylamino]-piperidin-1-yl}-1-(4-butyl-phenyl)-methanone], the IC50 against cdk2/cyclin E was 121 nM; in the test with MDA-MB-435 it was 1.43 µM; with PC-3, 1.45 µM.
Regarding `N[C@H]1CC[C@H](Nc2nc(NC3CCN(C(=O)OCc4ccccc4)CC3)c3ncn(C4CCCC4)c3n2)CC1` [compound 90, trans-4-[2-(4-Amino-cyclohexylamino)-9-cyclopentyl-9H-purin-6-ylamino]-piperidine-1-carboxylic acid benzyl ester dihydrochloride], the IC50 with MDA-MB-435 turned out to be 0.38 µM; in the test with PC-3 it was 0.58 µM.
Turning to `N[C@H]1CC[C@H](Nc2nc(NC3CCN(C(=O)c4ccc([N+](=O)[O-])cc4)CC3)c3ncn(C4CCCC4)c3n2)CC1` [compound 27, trans-1-{4-[2-(4-Amino-cyclohexylamino)-9-cyclopentyl-9H-purin-6-ylamino]-piperidin-1-yl}-1-(4-nitro-phenyl)-methanone], the half-maximal inhibitory concentration (IC50) amounted to 1.73 µM in the test on MDA-MB-435 and 2 µM in the test with PC-3.
For `CCCCCCCc1ccc(C(=O)N2CCC(Nc3nc(N[C@H]4CC[C@H](N)CC4)nc4c3ncn4C3CCCC3)CC2)cc1` [compound 24, trans-1-{4-[2-(4-Amino-cyclohexylamino)-9-cyclopentyl-9H-purin-6-ylamino]-piperidin-1-yl}-1-(4-heptyl-phenyl)-methanone], the IC50 in the test with MDA-MB-435 was found to be 2.18 µM; in the test with PC-3, 3.97 µM.
The molecule `N[C@H]1CC[C@H](Nc2nc(NC3CCN(C(=O)/C=C/c4ccccc4)CC3)c3ncn(C4CCCC4)c3n2)CC1` [compound 62, trans-(E)-1-{4-[2-(4-Amino-cyclohexylamino)-9-cyclopentyl-9H-purin-6-ylamino]-piperidin-1-yl}-3-phenyl-propenone dihydrochloride] returned a 50% inhibitory concentration (IC50) against cdk2/cyclin E of 66 nM.
In the case of `CCCOC(=O)N1CCC(Nc2nc(N[C@H]3CC[C@H](N)CC3)nc3c2ncn3C2CCCC2)CC1` [compound 96, trans-4-[2-(4-Amino-cyclohexylamino)-9-cyclopentyl-9H-purin-6-ylamino]-piperidine-1-carboxylic acid propyl ester dihydrochloride], the IC50 in the test on MDA-MB-435 and with PC-3 was 0.35 µM in each case.
With `CCCCC(CC)COC(=O)N1CCC(Nc2nc(N[C@H]3CC[C@H](N)CC3)nc3c2ncn3C2CCCC2)CC1` (mixture of isomers) [compound 97, (±)-trans-4-[2-(4-Amino-cyclohexylamino)-9-cyclopentyl-9H-purin-6-ylamino]-piperidine-1-carboxylic acid 2-ethyl-hexyl ester dihydrochloride], the IC50 in the test with MDA-MB-435 is 1.52 µM; in the test on PC-3 it was 1.65 µM.
Regarding `CC(C)COC(=O)N1CCC(Nc2nc(N[C@H]3CC[C@H](N)CC3)nc3c2ncn3C2CCCC2)CC1` [compound 91, trans-4-[2-(4-Amino-cyclohexylamino)-9-cyclopentyl-9H-purin-6-ylamino]-piperidine-1-carboxylic acid isobutyl ester dihydrochloride], the IC50 was 0.36 µM with MDA-MB-435 and 0.37 µM in the test on PC-3.
